This note sets out measurements from patent US20110105565A1, “WATER SOLUBLE SMALL MOLECULE INHIBITORS OF THE CYSTIC FIBROSIS TRANSMEMBRANE CONDUCTANCE REGULATOR” (THE REGENTS OF THE UNIVERSITY OF CALIFORNIA, priority 2008, published 2011).

The test system of series [1] is MDCK cells. Kind of series: MDCK cell apoptosis, in situ cell death detection kit. It is filed as cell-based, Canine. Particulars: 10 μM, 72 h. The procedure: Apoptosis was measured using the in situ cell death detection kit (ROCHE Diagnostics, Indianapolis, Ind.). MDCK cells were seeded on 8-chamber polystyrene tissue culture-treated glass slides and incubated with compounds T08 and G07 for 72 h at 5, 10 or 20 μM. The assay was performed according to manufacturer's instructions. Five microscopic fields were analyzed per condition. The apoptosis index was calculated as the percentage of nucleus-stained cells.

The target in series [2] is T1, CFTR (Canis lupus familiaris, UniProt Q5U820).
T1 construct: MDCK cells, which endogenously express CFTR; endogenous in cells; host or cells: MDCK cells
T1 sequence (Q5U820 whole entry): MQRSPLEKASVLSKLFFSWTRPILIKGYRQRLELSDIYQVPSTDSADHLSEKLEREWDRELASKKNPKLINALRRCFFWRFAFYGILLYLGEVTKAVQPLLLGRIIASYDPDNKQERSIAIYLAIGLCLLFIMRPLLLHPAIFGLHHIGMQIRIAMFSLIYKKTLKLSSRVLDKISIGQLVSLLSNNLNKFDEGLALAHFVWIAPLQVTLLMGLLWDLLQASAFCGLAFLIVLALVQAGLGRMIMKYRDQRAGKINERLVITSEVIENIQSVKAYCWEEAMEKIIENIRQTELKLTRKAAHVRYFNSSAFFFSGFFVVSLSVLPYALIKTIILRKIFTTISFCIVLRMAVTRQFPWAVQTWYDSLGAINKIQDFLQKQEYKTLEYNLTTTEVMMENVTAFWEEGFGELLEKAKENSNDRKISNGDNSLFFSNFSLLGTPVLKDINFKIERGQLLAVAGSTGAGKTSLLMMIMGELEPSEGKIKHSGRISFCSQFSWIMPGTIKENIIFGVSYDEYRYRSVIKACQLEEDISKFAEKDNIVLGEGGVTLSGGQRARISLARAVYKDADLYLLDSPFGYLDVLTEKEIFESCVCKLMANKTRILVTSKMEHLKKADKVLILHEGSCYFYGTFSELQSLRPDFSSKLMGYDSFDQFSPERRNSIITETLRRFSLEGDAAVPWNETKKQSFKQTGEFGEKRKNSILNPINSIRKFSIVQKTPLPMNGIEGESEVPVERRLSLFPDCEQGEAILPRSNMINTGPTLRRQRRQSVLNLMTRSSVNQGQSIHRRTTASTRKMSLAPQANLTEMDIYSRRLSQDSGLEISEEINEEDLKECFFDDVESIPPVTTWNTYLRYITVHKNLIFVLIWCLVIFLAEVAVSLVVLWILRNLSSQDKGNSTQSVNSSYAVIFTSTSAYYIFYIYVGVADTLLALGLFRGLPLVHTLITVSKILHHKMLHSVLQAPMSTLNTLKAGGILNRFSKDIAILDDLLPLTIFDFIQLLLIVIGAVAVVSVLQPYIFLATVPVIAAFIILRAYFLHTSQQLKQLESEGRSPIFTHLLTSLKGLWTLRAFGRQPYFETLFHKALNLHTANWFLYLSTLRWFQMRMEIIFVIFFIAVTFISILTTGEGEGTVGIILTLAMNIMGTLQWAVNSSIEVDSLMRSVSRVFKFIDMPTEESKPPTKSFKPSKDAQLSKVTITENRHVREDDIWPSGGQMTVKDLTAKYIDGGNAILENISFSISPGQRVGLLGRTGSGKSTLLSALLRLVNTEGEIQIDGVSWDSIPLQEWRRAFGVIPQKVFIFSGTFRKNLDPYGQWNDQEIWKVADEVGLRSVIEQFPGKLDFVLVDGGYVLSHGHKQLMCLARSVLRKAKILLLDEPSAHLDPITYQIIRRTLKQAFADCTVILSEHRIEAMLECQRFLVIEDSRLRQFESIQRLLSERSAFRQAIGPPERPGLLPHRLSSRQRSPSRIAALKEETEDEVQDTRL
Kind of series: Short-circuit current measurements in MDCK cells. Format: cell-based, Canine. The conditions noted are these: for IC50: after CFTR stimulation by forskolin, read-out: IC50, inhibition of short-circuit current in MDCK cells; for CFTR expression, short-circuit current after incubation (in words): 10 μM, 1 or 48 hour incubation, washout 1 hour. How it is done: CFTR inhibition potency was confirmed in MDCK cells by short-circuit current analysis. Snapwell inserts containing MDCK cells (transepithelial resistance 1000-2000 Ohms) were mounted in a standard Using chamber system. The basolateral membrane was permeabilized with 250 μg/ml amphotericin B. The hemichambers were filled with 5 mL of 65 mM NaCl, 65 mM Na-gluconate, 2.7 mM KCl, 1.5 mM KH2PO4, 1 mM CaCl2, 0.5 mM MgCl2, Na-Hepes and 10 mM glucose (apical), and 130 mM NaCl, 2.7 mM KCl, 1.5 mM KH2PO4, 1 mM CaCl2, 0.5 mM MgCl2, Na-Hepes and 10 mM glucose (basolateral) (pH 7.3). Short-circuit current was recorded continuously using a DVC-1000 voltage clamp (World Precision Instruments, Sarasota Fla.) with Ag/AgCl electrodes and 1 M KCl agar bridges.
In some experiments, MDCK cells in Snapwell inserts were cultured in medium containing 10 μM T08 or G07 for 1 or 48 hours. Compounds were washed out with medium for 1 hour before short-circuit current measurements.

Series [3] deals with embryonic kidneys. Put plainly: Embryonic kidney organ culture model (8-Br-cAMP-induced cysts). Format: cell-based, mouse. The conditions noted are these: for kidney length after 4 days in culture: absence of 8-Br-cAMP; for cyst formation in embryonic kidneys (in words): 100 μM 8-Br-cAMP, 4 days. The text has this:
An embryonic kidney organ culture model was used to further evaluate compounds T08 and G07. Embryonic kidney culture models permit organotypic growth and differentiation of renal tissue in defined media without the confounding effects of circulating hormones and glomerular filtration (see, e.g., Magenheimer et al., J Am Soc Nephrol 17: 3424-37, 2006; and Gupta et al., Kidney Int 63: 365-376, 2003). In addition, the early mouse kidney tubule in this model has an intrinsic capacity to secrete fluid in response to cAMP by a CFTR-dependent mechanism (Magenheimer et al.), allowing the evaluation of CFTR inhibitors in particular.
Mouse embryos were obtained at embryonic day 13.5 (E13.5). Metanephroi were dissected and placed on transparent Falcon […] porous cell culture inserts. To the culture inserts was added DMEM/Ham's F-12 nutrient medium supplemented with 2 mM L-glutamine, 10 mM HEPES, 5 μg/ml insulin, 5 μg/ml transferrin, 2.8 nM selenium, 25 ng/ml prostaglandin E, 32 pg/ml T3, 250 U/ml penicillin and 250 μg/ml streptomycin. Kidneys were maintained in a 37° C. humidified CO2 incubator, and were cultured for 4 days in the absence or presence of 100 μM 8-Br-cAMP. Culture medium containing 100 μM 8-Br-cAMP, with or without CFTR inhibitors, was replaced (in the lower chamber) every 12 hours.
Kidneys were photographed using a Nikon inverted microscope (Nikon TE 2000-S) equipped with 2× objective lens, 520 nm bandpass filter, and high-resolution PixeLINK color CCD camera. […] Cyst sizes in micrographs of metanephroi were determined using MATLAB 7.0 software. A masking procedure was used to highlight all pixels of similar intensity within each cyst. Fractional cyst area was calculated as total cyst area divided by total kidney area. Cysts with diameters >50 μm were included in the analysis. Image acquisition and analysis was done without knowledge of treatment condition.

For series [4], the system named is Pkd1^flox/−; Ksp-Cre mice. Kind of series: Pkd1flox/-;Ksp-Cre mouse model of autosomal dominant polycystic kidney disease. It is filed as in vivo. Particulars: for kidney weight in Pkd1flox/-;Ksp-Cre mice (in words): 3 days treatment, vs vehicle-treated; for total numbers of cysts (of >50 μm diameter) per kidney: H&E sections, control 797±69; for total numbers of cysts (of >50 μm diameter) per kidney / serum creatinine and urea (in words): Pkd1flox/-;Ksp-Cre mice; for serum creatinine and urea (in words): vs vehicle control, age 5 and 9 days. An excerpt: An in vivo model of kidney disease was employed to further explore the ability of CFTR inhibitors to reduce cyst formation in a vascular, perfused cellular environment. Pkd1^flox/−; Ksp-Cre mice were employed for this model, since these kidney-selective Pkd1 knockout mice manifest a fulminant course, with development of large cysts and renal failure in first 2 weeks of life, and represent a postnatal model of ADPKD. Pkd1 knockout mice normally die within 20 days. The Pkd1^flox/−; Ksp-Cre model is suitable, inter alia, for evaluating the efficacy of CFTR inhibitors on retarding the growth of cysts in the distal segments of the nephron, including medullary thick ascending limbs of the loops of Henle, distal convoluted tubule and collecting ducts.
Pkd1^flox mice and Ksp-Cre transgenic mice in a C57BL/6 background were generated as described (see, e.g., Shibazaki et al., J Am Soc Nephrol 13: 10-11, 2004; and Shao et al., J Am Soc Nephrol 13: 1837-1846, 2002). Ksp-Cre mice express Cre recombinase under the control of the Ksp-cadherin promoter (Shao et al.). Kidney-specific Pdk1 knock-out mice (Pkd1^flox/−; Ksp-Cre mice) were generated by cross-breeding Pkd1^flox/flox mice with Pkd1^+/−:Ksp-Cre mice. Neonatal mice (age 1 day) were genotyped by genomic PCR.
CFTR inhibitors (5-10 mg/kg/day) or saline DMSO vehicle control (0.05 mL/injection) were administrated by subcutaneous injection on the backs of neonatal mice four times a day for 3 or 7 days using a 1 cc insulin syringe, beginning at age 2 days (11 mice per group). Pkd1^flox/+; Ksp-Cre or Pkd1^flox/+ mice from the same litter were used as controls. During the treatment period, control and Pkd1^flox/−; Ksp-Cre mice, with or without CFTR inhibitor treatment, were indistinguishable in their activity and behavior. Body weight was measured at day 5 (3 days after treatment), at which time there was no difference in body weight in any of the mouse groups. Blood and urine samples were collected for measurements of CFTR inhibitor concentration and renal function. Kidneys were removed and weighed, and fixed for histological examination or homogenized for determination of CFTR inhibitor content.
To measure serum creatinine and urea (indicators of renal function), serum was obtained from whole blood by centrifugation at 5000×g for 5 min. Serum creatinine concentration was measured using a colorimetric assay kit (Cayman Chemical, Ann Arbor Mich.) following manufacturer's instructions. Urea concentration was measured using the colorimetric QUANTICHROM Urea Assay Kit (BioAssay Systems, Hayward, Calif.). Creatinine and urea concentrations were determined from optical densities using calibration standards.
For histological examination, kidneys were fixed with Bouin's fixative and embedded in paraffin. Three-μm thick sections were cut serially every 200 μm and stained with hematoxylin and eosin (H&E). Sections were imaged using a LEICA inverted epifluorescence microscope (DM 4000B) equipped with 2.5× objective lens and color CCD camera (Spot, model RT KE; Diagnostic Instruments Inc.). Cyst sizes in micrographs of kidney were determined using MATLAB 7.0 software.

“Also recorded” adds a separate entry of the source.

Usually IC50 stands for the point on the concentration scale where inhibition reaches its midpoint. With `O=C1/C(=C/c2ccc(-c3nn[nH]n3)cc2)SC(=S)N1c1cccc(C(F)(F)F)c1` [Compound 6, (Z)-5-(4-(1H-tetrazol-5-yl)benzylidene)-2-thioxo-3-(3-(trifluoromethyl)phenyl)thiazolidin-4-one], the “MDCK cell apoptosis (in words)” value in series [1] is listed as “did not cause MDCK cell apoptosis”. Also, the IC50 in series [2] was roughly 1 µM. In addition, in series [3], the “kidney length after 4 days in culture” value was found to be 7.4±0.5 mm.
Turning to “N-2-naphthalenyl-2-hydroxyethyl-[(3,5-dibromo-2,4-dihydroxyphenyl)methylene]phenylglycinehydrazide [Compound G07]”, in series [1], the “MDCK cell apoptosis (in words)” value was “did not cause MDCK cell apoptosis”. In series [4], the “kidney weight in Pkd1flox/-;Ksp-Cre mice (in words)” value was “reduced kidney weight significantly”; the “total numbers of cysts (of >50 μm diameter) per kidney” value turned out to be 316±45; the “serum creatinine and urea (in words)” value is on record as “significantly reduced”. For the same compound, in series [2], the “CFTR expression, short-circuit current after incubation (in words)” value is “did not alter CFTR expression” and the IC50 was roughly 1 µM. In series [3], the “cyst formation in embryonic kidneys (in words)” value was “remarkably reduced cyst formation; also recorded: reduced the number and size of cysts”; the “kidney length after 4 days in culture” value worked out at 7.1±0.4 mm.
Regarding `O=C1/C(=C/c2ccc(-c3nnn[nH]3)cc2)SC(=S)N1c1cccc(C(F)(F)F)c1` [Compound 6, (Z)-5-(4-(1H-tetrazol-5-yl)benzylidene)-2-thioxo-3-(3-(trifluoromethyl)phenyl)thiazolidin-4-one], in series [4], the “kidney weight in Pkd1flox/-;Ksp-Cre mice (in words)” value is on record as “reduced kidney weight significantly”; the “total numbers of cysts (of >50 μm diameter) per kidney” value turned out to be 457±32; the “serum creatinine and urea (in words)” value is recorded as “significantly reduced”. Also, the “CFTR expression, short-circuit current after incubation (in words)” value in series [2] is listed as “did not alter CFTR expression”. In addition, the “cyst formation in embryonic kidneys (in words)” value in series [3] (listed as T08) was “remarkably reduced cyst formation; also recorded: reduced the number and size of cysts”.
